Inhibition and melting point data for 11 compounds are collected here from US6825200B1, “Substituted dipeptides having nos inhibiting activity” (Fujisawa Pharmaceutical Co., Ltd., priority 1999, dated 2004).

Data set [1] has as its system production of nitric oxide in murine macrophage cell line RAW264.7. Briefly: Assay for inhibitory activity on the production of nitric oxide (Griess reagent, LPS/INF γ-activated RAW264.7 cells). To be noted: Mus musculus; test compound 10^−6 M; RAW264.7 cells activated with LPS (1 μg/ml) and INF γ (3 u/ml) for 18-24 hours; NO2^− by Griess reagent. The class given is cell-based. On the procedure:
Test 1: Assay for Inhibitory Activity on the Production of Nitric Oxide The murine macrophage cell line RAW264.7 (American Type Culture Collection, No. TIB71) was used in this study. RAW264.7 cells were grown on […] plastic culture flasks at 37° C., 5% in Dulbecco's modified Eagle's medium (DMEM) supplemented with L-glutamine, penicillin, streptomycin and 10% heat-inactivated fetal bovine serum. They were removed from culture flasks by rubber cell scraper and were centrifuged and resuspended in DMEM without phenol red. They were plated in 96-well microtiter plates (10^5 cells per well) and allowed to adhere over 2 hours. The test samples were added and the cells were preincubated for 1 hour. Thereafter the cells were activated with both of lipopolysaccharide (LPS) (1 μg/ml) and interferon γ (INF γ) (3 u/ml) for 18-24 hours. An equal volume of Griess reagent (1% sulfanilamide/0.1% N-naphthylethylenediamine dihydrochloride/2.5% H3PO4) was added and the cells were incubated at room temperature for 10 minutes. The absorbance was read at 570 nm using microplate reader and NO2^- was measured using NaNO2 as a standard.

For orientation: inhibition means the percentage by which the read-out fell short of the control. One may read the melting point as the temperature, or range, at which the solid turns liquid.

`COc1ccc(N2CCN(C(=O)CNC(=O)[C@H](Cc3ccccn3)NC(=O)c3cc4cc(Cl)ccc4o3)CC2)cc1` [Compound (f), 5-Chloro-N-[(1S)-2-[[2-[4-(4-methoxyphenyl)-1-piperazinyl]-2-oxoethyl]amino]-2-oxo-1-(2-pyridylmethyl)ethyl]-1-benzofuran-2-carboxamide] showed an inhibition at 1 µM in data set [1] of 100%. As for `O=C(N[C@@H](Cc1ccccn1)C(=O)NCC(=O)N1CCN(c2ccccc2)C[C@H]1CO)c1cc2cc(Cl)ccc2o1` [Example 26, 5-Chloro-N-[(1S)-2-[[2-[(2S)-2-(hydroxymethyl)-4-phenyl-1-piperazinyl]-2-oxoethyl]amino]-2-oxo-1-(2-pyridylmethyl)ethyl]-1-benzofuran-2-carboxamide], the melting point fell in the range of 115 to 120 °C. In data set [1], `O=C(N[C@@H](Cc1ccccn1)C(=O)NCC(=O)N1CCN(c2ccc(Cl)cc2)CC1)c1cc2cc(Cl)ccc2o1` [Compound (a), 5-Chloro-N-[(1S)-2-[[2-[4-(4-chlorophenyl)-1-piperazinyl]-2-oxoethyl]amino]-2-oxo-1-(2-pyridylmethyl)ethyl]-1-benzofuran-2-carboxamide] showed an inhibition at 1 µM of 100%. In turn, `C[C@H](NC(=O)[C@H](Cc1ccccn1)NC(=O)/C=C/c1ccc(Cl)cc1)C(=O)N1CCN(c2ccc(Cl)cc2)CC1` [Example 23, (2E)-3-(4-Chlorophenyl)-N-[(1S)-2-[[(1S)-2-[4-(4-chlorophenyl)-1-piperazinyl]-1-methyl-2-oxoethyl]amino]-2-oxo-1-(2-pyridylmethyl)ethyl]-2-propenamide] showed a melting point of 179 to 181 °C. On to `O=C(/C=C/c1ccc(Cl)cc1)N[C@@H](Cc1ccccn1)C(=O)NCC(=O)N1CCN(c2ccc(C(F)(F)F)cc2)CC1` [Compound (e), (2E)-3-(4-Chlorophenyl)-N-[(1S)-2-oxo-2-[[2-oxo-2-[4-(4-trifluoromethylphenyl)-1-piperazinyl]ethyl]amino]-1-(2-pyridylmethyl)ethyl]-2-propenamide], for which the inhibition at 1 µM in data set [1] was 99%. Still for that read-out and setting: to `Cc1ccc(N2C[C@@H](C)N(C(=O)CNC(=O)[C@H](Cc3ccccn3)NC(=O)/C=C/c3ccc(Cl)cc3)[C@@H](C)C2)cc1` [Compound (c), (2E)-3-(4-Chlorophenyl)-N-[(1S)-2-[[2-[(2R,6S)-2,6-dimethyl-4-(4-methylphenyl)-1-piperazinyl]-2-oxoethyl]amino]-2-oxo-1-(2-pyridylmethyl)ethyl]-2-propenamide] belongs 100%. As for `C[C@H](NC(=O)[C@H](Cc1ccccn1)NC(=O)c1cc2cc(Cl)ccc2o1)C(=O)N1CCN(c2ccc(Cl)cc2)CC1` [Example 22, 5-Chloro-N-[(1S)-2-[[(1S)-2-[4-(4-chlorophenyl)-1-piperazinyl]-1-methyl-2-oxoethyl]amino]-2-oxo-1-(2-pyridyl-methyl)ethyl]-1-benzofuran-2-carboxamide], the melting point is 152 to 155 °C.

On to `O=C(N[C@@H](Cc1ccccn1)C(=O)NCC(=O)N1CCN(c2cccs2)CC1)c1cc2cc(Cl)ccc2o1` [Example 18, 5-Chloro-N-[(1S)-2-oxo-2-[[2-oxo-2-[4-(2-thienyl)-1-piperazinyl]ethyl]amino]-1-(2-pyridylmethyl)ethyl]-1-benzofuran-2-carboxamide], for which the melting point is 75 to 85 °C. The compound `C[C@H]1CN(c2ccccc2)CCN1C(=O)CNC(=O)[C@H](Cc1ccccn1)NC(=O)/C=C/c1ccc(Cl)cc1` [Compound (b), (2E)-3-(4-Chlorophenyl)-N-[(1S)-2-[[2-((2S)-2-methyl-4-phenyl-1-piperazinyl)-2-oxoethyl]amino]-2-oxo-1-(2-pyridylmethyl)ethyl]-2-propenamide] displayed an inhibition at 1 µM in data set [1] of 100%. Compound `O=C(/C=C/c1ccc(Cl)cc1)N[C@@H](Cc1ccccn1)C(=O)NCC(=O)N1CCN(CCC(F)(F)F)CC1` [Compound (d), (2E)-3-(4-Chlorophenyl)-N-[(1S)-2-oxo-2-[[2-oxo-2-[4-(3,3,3-trifluoropropyl)-1-piperazinyl]ethyl]amino]-1-(2-pyridylmethyl)ethyl]-2-propenamide] gave an inhibition at 1 µM in data set [1] of 100%. In the case of `COC[C@@H]1CN(c2ccccc2)CCN1C(=O)CNC(=O)[C@H](Cc1ccccn1)NC(=O)c1cc2cc(Cl)ccc2o1` [Example 25, 5-Chloro-N-[(1S)-2-[[2-[(2S)-2-(methoxymethyl)-4-phenyl-1-piperazinyl]-2-oxoethyl]amino]-2-oxo-1-(2-pyridylmethyl)ethyl]-1-benzofuran-2-carboxamide], the melting point was in the range of 95 to 100 °C.
